In publication PMC4322365, “A Ligand-observed Mass Spectrometry Approach Integrated into the Fragment Based Lead Discovery Pipeline” (Scientific Reports, 2015):
Where “and” joins values, the source holds several entries; their conditions need not be identical. Equal entries are not always repeated.

Assays:
[1] = biological target: T1, HCV RNA polymerase NS5B (Hepatitis C virus genotype 1b, UniProt P26663); assay: Ligand-observed MS primary screen of the 384-fragment mixture (ultrafiltration LC/MS); type: binding; conditions: for S/N in the 1st screen: 384 fragments each 25 μM, NS5B 50 μM, two experimental replicates separated by a slash, S/N > 10 indicates positive hit
T1 construct: NS5B with a C-terminal 10-His tag was expressed in E. coli; 10-His (C); made in house; host or cells: E. coli
T1 sequence (P26663 2420-3010): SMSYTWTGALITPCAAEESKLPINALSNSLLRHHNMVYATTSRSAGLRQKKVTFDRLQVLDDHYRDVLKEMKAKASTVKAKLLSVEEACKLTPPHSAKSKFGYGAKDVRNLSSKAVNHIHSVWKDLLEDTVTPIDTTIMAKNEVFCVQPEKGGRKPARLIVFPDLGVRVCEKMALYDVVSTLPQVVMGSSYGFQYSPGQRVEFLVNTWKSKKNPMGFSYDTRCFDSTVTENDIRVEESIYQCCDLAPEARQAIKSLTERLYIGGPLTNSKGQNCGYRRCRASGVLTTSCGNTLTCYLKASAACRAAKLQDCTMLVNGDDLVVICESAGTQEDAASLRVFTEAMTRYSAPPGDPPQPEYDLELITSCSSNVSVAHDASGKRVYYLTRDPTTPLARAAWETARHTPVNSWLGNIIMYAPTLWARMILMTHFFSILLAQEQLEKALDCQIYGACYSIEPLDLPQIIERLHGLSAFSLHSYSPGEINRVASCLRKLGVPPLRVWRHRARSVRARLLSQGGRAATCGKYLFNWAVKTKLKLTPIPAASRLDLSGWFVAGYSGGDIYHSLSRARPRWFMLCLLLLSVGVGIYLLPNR
Protocol: A two-stage fragment screening strategy based on the ligand-observed MS analysis was devised that involved a primary screen of 384 fragment as a whole followed by a secondary independent screen of fragment cocktails of less complexity. In the primary screen, a mixture of all 384 fragments was incubated with NS5B protein before the fragment-bound complexes were separated from excessive free fragments using ultrafiltration. […] Fragments dissociated from the target using 90% methanol in deionized water were subjected to LC-MS analysis and those showing MS intensity substantially higher than the negative control (protein-free incubation) were considered positive hits (Figure 1A). Although in our previous assay development we justified an S/N ratio of 2 to be the threshold for positive binding, here we raised the S/N threshold to 10 so as to retain the upmost strong binders given that low-affinity fragments are more inclined to nonspecific adsorption. Impressively, the high selectivity of high-resolution MS (HRMS) analysis enabled rapid screening of the 384-fragment mixture within 20-min analytical time, generating 20 preliminary hits with S/N above 10 (Figure 1B, full data sets in Table S1). It is noted that 20 compounds (5%) in this library are not amenable to our analysis, probably due to the limited sensitivity of the mass spectrometer used in this study or the intrinsically low ionization efficiency of these compounds. Nevertheless, these undetectable fragments were still included in the screening cocktail to maximize the complexity of multiple ligand interactions during incubation. To the best of our knowledge, such a high capacity in mixture screening has never been shown before for fragment libraries, and we anticipate the throughput can be easily boosted to screening >1000 fragments within half an hour using a state-of-the-art mass spectrometer.
In the primary screening, a mixture of 384 fragments (each at a final concentration of 25 μM) and NS5B at 50 μM was prepared in the binding buffer of 20 mM MES (pH 6.5), 300 mM NaCl and 10% glycerol, and incubated for 40 min at 25°C. All fragments of the library were either purchased from Sigma or synthesized in our laboratory, and their structural diversity was summarized in Figure S4. The mixture was then filtered through an ultrafiltration membrane (50 KD MW cut-off) by centrifugation at 13000 g for 10 min at […]. The protein complexes bound with different fragments were washed twice with 10 mM ammonium acetate (pH 6.5) followed by centrifugation to remove the unbound fragments. The resulting solution of the complexes was transferred to a new centrifugal tube, and the ligands were dissociated from NS5B with 90% methanol in deionized water. The released ligands were then separated from the denatured protein by centrifugation at 13000 g for 10 min at 20°C. The supernatant containing the ligands was evaporated by a speed vacuum, reconstituted in 80% methanol, and analyzed by LC/MS. The protein-free control was prepared by using the binding buffer substitute for NS5B during incubation and it underwent the same process as the NS5B incubated sample. In the secondary screen, 384 fragments were divided into 7 cocktails, each consisting of 50 fragments except for the seventh cocktail of 84 fragments. Each cocktail was then incubated with NS5B in the binding buffer at the same final concentration as in the primary screen. […] Ultrafiltration and complex dissociation were performed as described earlier to obtain fragment ligands. Samples were all prepared in duplicate and analyzed separately.
Aliquots of reconstituted ultrafiltrates were analyzed on a Waters Synapt G1 high-dfinition mass spectrometer (Milford, MA) equipped with a Waters Acquity UPLC system. UPLC separation was carried out on a Waters Acquity BEH C18 column (2.1 mm × 50 mm, 1.7 μm) at a flow rate of 200 μL/min, with the mobile phases of water/0.1% formic acid (A) and acetonitrile/0.1% formic acid (B). […]

[2] = biological target: T2, NS5B (Hepatitis C virus genotype 1b, UniProt P26663); assay: SPR analysis (Biacore T200, immobilized NS5B); type: binding; conditions: for SPR Corr. response (RU): corrected response above 5 RU indicates positive binding; for SPR binding: threshold 5 RU
T2 construct: NS5B with a C-terminal 10-His tag was expressed in E. coli; 10-His (C); made in house; host or cells: E. coli
T2 sequence (P26663 2420-3010): as above
Protocol: In order to determine the dissociation constant of each fragment ligand, we prepared calibration curves for the MS responses of ten fragments in a mixture (Figure S1) and measured the recovery rate of each fragment (Table S3), which were used to derive the actual concentrations of fragments bound to the target. Kd values were then calculated based on the measured concentrations of fragment ligands dissociated from the target (Table S3). […] Ligand efficiency (LE) values were then derived from Kd's as a measure to justify which fragments to further optimize and elaborate in the FBLD pipeline[46][47] (Figure 2A). To examine the accuracy of Kd measurement using this new approach, we first attempted to utilize ITC for binding affinity assessment. […] SPR was then implemented for Kd determination for these fragment hits. […] However, using the single point measurement method, we were still able to estimate Kd's for these fragment-target interactions to be all within the millimolar range and rank the order of their binding affinity according to corrected responses (Figure 2B). […] The overall consistency of affinity ranking and estimation between the two independent assays implied our new approach enabled reliable assessment of binding affinity, especially valuable for characterizing low-affinity fragments not amenable to conventional biophysical approaches.
The SPR experiment was performed on a Biacore T200 optical biosensor (Biacore Life Sciences, GE Healthcare). Series S sensor chips CM5, NHS, EDC, ethanolamine HCl as well as sampling vials and caps were all obtained from Biacore. A solution of 1 × PBS with 5% DMSO was used as running buffer. NS5B protein at 50 μg/ml prepared in buffer of 10 mM sodium acetate (pH 5.5) was injected for immobilization which reached a level of 8000 RU. During each binding cycle, the fragment solution was injected for 1 min at a flow rate of 30 μL/min and dissociation was monitored for 300 s. Data were collected with the biosensor instrument thermo stated to 25°C. Raw data collected on an SPR biosensor were further processed to remove systematic artifacts stemming from nonspecific binding, signal drift, and bulk refractive index changes. Solvent correction and molecular weight adjustment were also applied in this study. All data processing and analysis was performed using the Biacore T200 Evaluation Software.

Row | Structure (SMILES) | S/N in the 1st screen [1] | SPR Corr. response (RU) [2] | Binding ([1]; Figure 1A workflow example) | S/N ([1]; Figure 1A workflow example) | SPR binding [2]
1 | Oc1ccc(F)c(Cl)c1 [Fragment 85] | 27.9 and 29.7 | 30.9 RU | – | – | –
2 | N#CCc1ccc(O)cc1 [Fragment 114] | 17.9 and 20.9 | 55.6 RU | – | – | –
3 | Cc1ccc2oc(=O)ccc2c1 [Fragment 117] | 55.6 and 46.8 | 24.6 RU | – | – | –
4 | Cn1c(=O)cc(O)c2ccccc21 [Fragment 130] | 93.1 and 102.3 | 18.4 RU | + (Positive fragment binding is indicated by its S/N ratio > 10) | 93 | –
5 | Cc1cc(N)n(-c2ccccc2)n1 [Fragment 131] | 45.7 and 39.3 | 14.7 RU | – | – | –
6 | Nc1ccc(C(F)(F)F)cn1 [Fragment 162] | 2714 and 3280 | 7.6 RU | + (Positive fragment binding is indicated by its S/N ratio > 10) | – | –
7 | O=C(O)c1ccc(C(F)(F)F)cc1 [Fragment 204] | 13.4 and 11.6 | < 5 RU and 3.2 RU | – | – | no binding
8 | Oc1ccc(SC(F)(F)F)cc1 [Fragment 237] | 1027 and 1179 | 10.0 RU | – | – | –
9 | N#CC(c1ccccc1)N1CCOCC1 (stereo not drawn) [Fragment 328] | 124.6 and 138.4 | – | – | – | no binding
10 | Cc1nc2ccccc2nc1C [Fragment 339] | 241.4 and 259.8 | 12.2 RU | – | – | –
